System: cancer stem cells (12037NS)
Experiment: Proliferation suppressive effect on cancer stem cells (survival rate, WST-8 / Cell Counting Kit-8)
Type: cell-based
Settings: for Survival Rate(%) of cancer stem cells: DMSO control = 100; for proliferation suppressive effect on cancer stem cells (in words): 10 μM, 3 days, verbal assessment
Method: The proliferation suppressive effect of the triazolohalopyrimidine compounds on cancer stem cells was evaluated as follows.
The proliferation suppressive effect of triazolohalopyrimidine compounds on cancer stem cells was evaluated using commercially available anticancer agents and known compounds known to have antitumor effect.
12037NS was used as cancer stem cells. 12037NS are the cells obtained by isolation and purification according to the method referred in Nature 432, No. 18, 396-401 (2004). 12037NS cells are susceptible to cytotoxicity by DMSO (dimethylsulfoxide) used for dilution of test compounds. Accordingly, DMSO was used as control.
Used cancer stem cells were 12037NS which are cultivated cancer stem cells. 12037NS are the cells obtained by isolation and purification according to the method referred in Nature 432, No. 18, 396-401 (2004).
Cancer stem cells (12037NS) were seededat 3.0×10^3 cells/well in a 96-well plate using DMEM (Dulbeco's Modified Eagle Medium).
Test compounds shown in Table 3 were diluted with DMSO and then further diluted with PBS (phosphate buffered saline) to prepare test solutions. The test solution was added to each well to become a final concentration of 10 μM. For controls, DMSO was added to the wells to become a final concentration of 0.1% (v/v).
After adding the test solution, the plate was incubated at 37° C. in a 5% CO2 environment for 3 days.
After incubation, water-soluble tetrazonium salt WST-8 (“Cell Counting Kit-8” coloring reagent; manufactured by Dojindo Laboratories) was added at 10 μL/well to each well and the plate was placed in a 37° C., 5% CO2 environment, and incubated for 2 hours.
The absorbance at 450 nm wavelength was measured for the culture solution in each well of the plate after incubation. WST-8 is reduced by intracellular dehydrogenase to produce water-soluble formazan. The number of living cells can be measured by measuring the absorbance of this formazan at 450 nm.
The survival rate of cancer stem cells was determined by comparing the measured number of living cells with the number of seeded cells.
In the same manner as in [Test Example 1], the survival rate of cancer stem cells was determined for the test compounds shown in Table 4. Triazolohalopyrimidine compound (I)g means 2-(4-hydroxyphenyl)-5-chloro-8-methyl[1.2.4]triazolo[1,5-c]pyrimidine.

[1] = Test Example 1, test compound 10 μM, 3 days incubation
[2] = Test Example 2, same manner as Test Example 1 (10 μM, 3 days)

| SMILES | Survival Rate(%) of cancer stem cells [1] [%] | Survival Rate(%) of cancer stem cells [2] [%] | proliferation suppressive effect on cancer stem cells (in words) |
| --- | --- | --- | --- |
| Cn1nnc2c(C(N)=O)ncn2c1=O [Temozolomide] | 65 | 75 | – |
| O=c1[nH]cc(F)c(=O)[nH]1 [5-Fluorouracil] | 80 | – | – |
| Cc1cnc(Cl)n2nc(-c3ccc(Cl)c(Cl)c3)nc12 [Compound (I)f, 2-(3,4-dichlorophenyl)-5-chloro-8-methyl[1.2.4]triazolo[1,5-c]pyrimidine] | – | – | significantly superior to those of commercially available anticancer agents |
| Cc1cnc(Cl)n2nc(-c3ccc(Br)cc3)nc12 [Compound (I)d, 2-(4-bromophenyl)-5-chloro-8-methyl[1.2.4]triazolo[1,5-c]pyrimidine] | – | – | significantly superior to those of commercially available anticancer agents |
| Cc1cnc(Cl)n2nc(-c3ccc(O)cc3)nc12 [Compound (I)g, 2-(4-hydroxyphenyl)-5-chloro-8-methyl[1.2.4]triazolo[1,5-c]pyrimidine] | – | 45 | – |
